Measurements published in ChEMBL document CHEMBL4602618, “Novel compounds that reverse the disease phenotype in Type 2 Gaucher disease patient-derived cells” (Bioorg Med Chem Lett, 2020).
Values after ≈ are worked out from the molar mass of the structure shown.

What was measured:
[1] = Chaperone activity at GCase L444P GBA gene mutant in human fibroblasts derived from Gaucher patient assessed as increase in GPN-induced reduction of calcium release using Fluo-8AM based fluorescence assay
[2] = species: Homo sapiens; experiment: Chaperone activity at GCase L444P GBA gene mutant in human fibroblasts derived from Gaucher patient assessed as increase in GPN-induced reduction of calcium release using Fluo-8AM based fluorescence assay relative to control
[3] = target: T1, Estrogen receptor (Homo sapiens) (UniProt P03372); experiment: Agonist activity at estradiol receptor (unknown origin) at 10 uM relative to control
T1 sequence (whole entry): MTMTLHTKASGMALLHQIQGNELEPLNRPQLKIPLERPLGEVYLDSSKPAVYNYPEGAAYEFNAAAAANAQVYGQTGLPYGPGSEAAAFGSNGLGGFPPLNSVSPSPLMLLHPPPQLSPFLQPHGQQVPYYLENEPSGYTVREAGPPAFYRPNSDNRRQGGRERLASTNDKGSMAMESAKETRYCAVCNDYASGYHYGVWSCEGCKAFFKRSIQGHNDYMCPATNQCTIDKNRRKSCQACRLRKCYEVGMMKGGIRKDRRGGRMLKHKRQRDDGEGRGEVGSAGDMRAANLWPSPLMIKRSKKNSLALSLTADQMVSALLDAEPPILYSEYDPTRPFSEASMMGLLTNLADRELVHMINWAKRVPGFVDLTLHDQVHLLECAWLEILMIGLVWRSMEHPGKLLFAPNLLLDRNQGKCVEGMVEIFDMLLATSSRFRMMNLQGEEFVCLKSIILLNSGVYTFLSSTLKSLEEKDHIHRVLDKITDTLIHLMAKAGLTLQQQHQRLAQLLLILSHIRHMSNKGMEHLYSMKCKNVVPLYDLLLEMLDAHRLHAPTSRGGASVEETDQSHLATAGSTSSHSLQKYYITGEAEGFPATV

[4] = target: T2, Lysosomal acid glucosylceramidase (Homo sapiens) (UniProt P04062); experiment: Chaperone activity at GCase in wild-type human fibroblasts assessed as increase in GPN-induced reduction of calcium release using Fluo-8AM based fluorescence assay relative to control
T2 sequence (whole entry): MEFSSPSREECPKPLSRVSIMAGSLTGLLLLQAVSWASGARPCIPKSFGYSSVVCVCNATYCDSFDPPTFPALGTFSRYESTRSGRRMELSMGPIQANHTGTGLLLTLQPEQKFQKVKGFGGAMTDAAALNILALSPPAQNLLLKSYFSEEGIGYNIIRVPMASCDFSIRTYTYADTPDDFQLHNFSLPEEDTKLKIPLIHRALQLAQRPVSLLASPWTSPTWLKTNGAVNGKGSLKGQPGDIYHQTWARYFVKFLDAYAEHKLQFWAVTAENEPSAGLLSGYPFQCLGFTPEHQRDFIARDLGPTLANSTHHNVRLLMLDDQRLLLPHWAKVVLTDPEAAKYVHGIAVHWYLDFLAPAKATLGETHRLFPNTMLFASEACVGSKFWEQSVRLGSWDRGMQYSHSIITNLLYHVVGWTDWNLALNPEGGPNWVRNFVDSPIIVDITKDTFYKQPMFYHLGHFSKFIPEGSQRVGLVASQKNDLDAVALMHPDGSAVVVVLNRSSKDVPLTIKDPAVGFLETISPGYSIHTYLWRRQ

[5] = Aqueous solubility of compound in PBS; assay type: physicochemical; settings: buffer
[6] = mouse, microsomes
[7] = human, microsomes

SMILES | Emax [2] [%] | Activity [3] [%] | Emax [4] [%] | solubility [5] [µM] | t1/2 [6] [min] | t1/2 [7] [min] | EC50 [1] [µM]
CC(C)CC(C(=O)c1ccc(OCCN(C)C)cc1)c1cccc(C(C)C)c1 (configuration not stated) | 80 | – | – | – | – | – | 1.5
CCC(Cc1ccccc1)c1ccc(OCCN(C)C)cc1 (configuration not stated) | 0 | 75 | – | – | – | – | > 20
CCCCCCC(C(=O)c1ccc(OCCN(C)C)cc1)c1ccccc1 (configuration not stated) | 0 | 5 | – | – | – | – | > 20
CCCCC(C(=O)c1ccc(OCCN(C)C)cc1)c1ccccc1CC (configuration not stated) | 138 | – | – | – | – | – | 0.65
CC/C(=C(\c1ccc(I)cc1)c1ccc(OCCN2CCCC2)cc1)c1ccccc1 [IDOXIFENE] | 48 | – | – | – | – | – | 10.7
CC(C)CC(C(=O)c1ccc(OCCN(C)C)cc1)c1ccccc1C1CC1 (racemic) | 240 | 0 | 50 | 31.7 (≈ 12 µg/mL) | 7.7 | 26.7 | 3.1
CC(C)CC(C(=O)c1ccc(OCCN(C)C)cc1)c1ccccc1 (configuration not stated) | 108 | 40 | – | – | – | – | 0.9
CCCCC(C(=O)c1ccc(OCCN(C)C)cc1)c1ccccc1C(C)C (configuration not stated) | 401 | 45 | 56 | 49.4 (≈ 18.8 µg/mL) | 7.9 | 21.6 | 1.4
CC(C)CC(C(=O)c1ccc(OCCN(C)C)cc1)c1ccccc1C(C)C (configuration not stated) | 406 | 39 | 148 | – | – | – | –
CCC(Cc1ccc(OCCN(C)C)cc1)c1ccccc1 (configuration not stated) | 154 | 43 | – | – | – | – | 4.3
CC(C)CCC(C(=O)c1ccc(OCCN(C)C)cc1)c1ccccc1 (configuration not stated) | 191 | 35 | – | – | – | – | 3.6
CC(C)C(C(=O)c1ccc(OCCN(C)C)cc1)c1ccccc1 (configuration not stated) | 54 | – | – | – | – | – | 4.4

More lines, main results first:

Emax [2] [%] | Activity [3] [%] | Emax [4] [%] | solubility [5] [µM] | t1/2 [6] [min] | t1/2 [7] [min] | SMILES | EC50 [1] [µM]
0 | – | – | – | – | – | CC/C(=C/c1ccc(OCCN(C)C)cc1)c1ccc([N+](=O)[O-])cc1 | > 20
40 | 47 | – | – | – | – | CC/C(=C/c1ccc(OCCN(C)C)cc1)Cc1ccccc1 | 2.3
257 | 35 | 109 | 45.2 (≈ 17.2 µg/mL) | 9.1 | 24.4 | C/C=C/c1ccccc1C(CCCC)C(=O)c1ccc(OCCN(C)C)cc1 (configuration not stated) | 2.2
0 | 25 | – | – | – | – | CC/C(=C/c1ccc(OCCN(C)C)cc1)c1ccc(N)cc1 | > 20
70 | 70 | – | – | – | – | CC/C(=C/c1ccc(OCCN(C)C)cc1)c1ccc(Cl)cc1 | 5.4
80 | 35 | – | – | – | – | CC/C(=C/c1ccc(OCCN(C)C)cc1)c1ccccc1 | 15.5
177 | 100 | – | – | – | – | C=Cc1ccccc1C(CCCC)C(=O)c1ccc(OCCN(C)C)cc1 (configuration not stated) | 2.3
56 | 98 | – | – | – | – | CCCC/C(=C\c1ccc(OCCN(C)C)cc1)c1ccccc1 | 7.2
148 | – | 28 | – | – | – | CC/C(=C(\c1ccccc1)c1ccc(OCCN(C)C)cc1)c1ccccc1 | –
0 | 46 | – | – | – | – | CC/C(=C/c1ccc(OCCN(C)C)cc1)c1ccc(F)cc1 | > 20
73 | 19 | – | – | – | – | CC/C(=C\c1ccc(OCCN(C)C)cc1)c1ccccc1 | 5.8
0 | 46 | – | – | – | – | CC/C(=C/c1ccc(OCCN(C)C)cc1)c1ccc(C(N)=O)cc1 | > 20
67 | 69 | – | – | – | – | CC/C(=C\c1ccc(OCCN(C)C)cc1)Cc1ccccc1 | 3.1
53 | 43 | – | – | – | – | CC/C(=C\c1ccccc1)c1ccc(OCCN(C)C)cc1 | 3
0 | – | – | – | – | – | CCCCC(C(=O)c1ccc(OCCN(C)C)cc1)c1ccccc1 (configuration not stated) | > 20
47 | 32 | – | – | – | – | CC/C(=C/c1ccc(OCCN(C)C)cc1)c1ccc(C#N)cc1 | 4.3
60 | 25 | – | – | – | – | CCCC(CCC)(C(=O)c1ccc(OCCN(C)C)cc1)c1ccccc1 | 4
